Experimental data reported in US8415469B2, “Compounds and methods for kinase modulation, and indications therefor” (Plexxikon Inc., priority 2005, dated 2013).

Columns and labels:
Format in all cases: biochemical
Kit = target: T1, Kit (Homo sapiens, UniProt P10721); assay: AlphaScreen kinase assay, Kit; conditions: read-out: IC50, activity toward kinase Kit
T1 construct: P1332.N6 BI PTP KIT M552-K948-X COD; His6 (N); made in house; host or cells: E. coli (PTP1B co-expressed)

Fms = target: T2, Fms (Homo sapiens, UniProt P07333); assay: AlphaScreen kinase assay, Fms; conditions: read-out: IC50, activity toward kinase Fms
T2 construct: purchased Upstate Biotechnology
T2 sequence (P07333 20-972): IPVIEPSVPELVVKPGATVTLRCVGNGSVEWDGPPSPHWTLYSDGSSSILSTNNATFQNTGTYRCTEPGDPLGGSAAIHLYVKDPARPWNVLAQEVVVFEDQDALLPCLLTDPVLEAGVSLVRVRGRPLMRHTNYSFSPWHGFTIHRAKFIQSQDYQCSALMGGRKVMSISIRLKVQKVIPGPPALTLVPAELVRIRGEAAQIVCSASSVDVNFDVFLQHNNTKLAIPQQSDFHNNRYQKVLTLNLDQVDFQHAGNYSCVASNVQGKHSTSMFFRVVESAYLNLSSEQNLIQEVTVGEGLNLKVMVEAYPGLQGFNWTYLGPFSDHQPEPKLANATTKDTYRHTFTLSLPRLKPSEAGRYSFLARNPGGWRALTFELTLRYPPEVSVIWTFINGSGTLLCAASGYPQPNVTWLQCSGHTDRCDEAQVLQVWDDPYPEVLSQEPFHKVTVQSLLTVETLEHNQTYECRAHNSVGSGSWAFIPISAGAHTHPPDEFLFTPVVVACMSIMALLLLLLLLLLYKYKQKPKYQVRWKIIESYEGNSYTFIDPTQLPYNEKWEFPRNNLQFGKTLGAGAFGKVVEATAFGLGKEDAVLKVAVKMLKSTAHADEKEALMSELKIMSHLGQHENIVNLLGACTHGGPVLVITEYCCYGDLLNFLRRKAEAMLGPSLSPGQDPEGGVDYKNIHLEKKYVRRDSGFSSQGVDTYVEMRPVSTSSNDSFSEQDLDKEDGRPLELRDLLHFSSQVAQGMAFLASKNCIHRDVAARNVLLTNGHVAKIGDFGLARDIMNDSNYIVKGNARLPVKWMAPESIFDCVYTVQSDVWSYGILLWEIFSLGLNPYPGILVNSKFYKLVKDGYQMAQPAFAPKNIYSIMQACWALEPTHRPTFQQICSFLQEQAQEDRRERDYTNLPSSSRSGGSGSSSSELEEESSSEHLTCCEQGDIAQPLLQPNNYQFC

B-Raf = target: T3, B-Raf (Homo sapiens, UniProt P15056); assay: AlphaScreen kinase assay, B-Raf; conditions: read-out: IC50, activity toward kinase B-Raf
T3 construct: purchased Upstate Biotechnology
T3 sequence (P15056 whole entry): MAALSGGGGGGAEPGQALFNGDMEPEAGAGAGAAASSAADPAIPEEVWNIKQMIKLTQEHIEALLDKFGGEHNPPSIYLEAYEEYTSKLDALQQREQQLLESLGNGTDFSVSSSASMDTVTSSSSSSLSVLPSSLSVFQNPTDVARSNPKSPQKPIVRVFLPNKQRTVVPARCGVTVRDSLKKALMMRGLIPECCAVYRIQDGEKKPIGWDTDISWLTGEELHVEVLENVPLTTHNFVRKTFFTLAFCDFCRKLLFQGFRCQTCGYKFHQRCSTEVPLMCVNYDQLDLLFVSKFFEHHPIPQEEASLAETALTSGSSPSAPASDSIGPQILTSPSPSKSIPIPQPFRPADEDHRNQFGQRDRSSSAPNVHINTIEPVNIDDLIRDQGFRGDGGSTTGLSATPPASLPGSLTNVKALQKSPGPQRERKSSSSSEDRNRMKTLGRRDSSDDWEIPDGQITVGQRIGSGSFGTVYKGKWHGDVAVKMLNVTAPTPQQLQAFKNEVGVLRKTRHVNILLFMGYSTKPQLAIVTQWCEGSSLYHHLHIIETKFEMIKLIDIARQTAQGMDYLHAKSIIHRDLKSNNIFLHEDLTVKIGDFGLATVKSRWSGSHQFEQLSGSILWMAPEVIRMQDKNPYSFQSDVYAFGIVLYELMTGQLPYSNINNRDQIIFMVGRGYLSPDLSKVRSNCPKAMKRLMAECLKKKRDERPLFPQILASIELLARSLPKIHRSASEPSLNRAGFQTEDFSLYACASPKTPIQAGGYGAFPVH

B-Raf V600E = target: T4, B-Raf V600E (Homo sapiens, UniProt P15056, V600E); assay: AlphaScreen kinase assay, B-Raf V600E; conditions: read-out: IC50, activity toward kinase B-Raf V600E
T4 construct: P4254. pFastBacBD-CDC37 BRAF D437-K722-X, V600E; His6 with pFastBac HT leader (TEV site) (N); made in house; host or cells: Sf9 (baculovirus; chaperone CDC37 co-expressed)
T4 sequence (P15056 with tags, fused parts or gaps V600E): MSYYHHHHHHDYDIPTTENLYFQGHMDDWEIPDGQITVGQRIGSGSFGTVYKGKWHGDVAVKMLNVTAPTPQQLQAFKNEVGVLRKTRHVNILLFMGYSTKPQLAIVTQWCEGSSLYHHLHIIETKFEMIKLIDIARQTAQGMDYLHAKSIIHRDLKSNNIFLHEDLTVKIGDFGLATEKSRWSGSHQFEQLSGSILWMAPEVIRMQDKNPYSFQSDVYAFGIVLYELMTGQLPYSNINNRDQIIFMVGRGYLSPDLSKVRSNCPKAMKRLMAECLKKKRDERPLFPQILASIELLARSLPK

FGFR1 = target: T5, FGFR1 (Homo sapiens, UniProt P11362, C488A/C584S); assay: AlphaScreen kinase assay, FGFR1; conditions: read-out: IC50, activity toward kinase FGFR
T5 construct: P1351.pET N6 BI-PTP FGFR A458-E765-X C488A, C584S; made in house; host or cells: E. coli (PTP1B co-expressed)
T5 sequence (P11362 458-765 C488A/C584S): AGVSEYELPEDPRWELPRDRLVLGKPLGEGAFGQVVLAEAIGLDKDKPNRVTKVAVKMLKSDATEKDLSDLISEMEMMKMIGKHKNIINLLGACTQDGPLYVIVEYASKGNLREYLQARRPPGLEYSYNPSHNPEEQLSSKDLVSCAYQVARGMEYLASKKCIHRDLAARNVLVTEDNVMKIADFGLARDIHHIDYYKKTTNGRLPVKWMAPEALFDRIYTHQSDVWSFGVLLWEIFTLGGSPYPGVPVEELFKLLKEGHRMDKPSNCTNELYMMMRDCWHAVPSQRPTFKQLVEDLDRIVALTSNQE

Measured: IC50

T1 sequence (P10721 with tags, fused parts or gaps): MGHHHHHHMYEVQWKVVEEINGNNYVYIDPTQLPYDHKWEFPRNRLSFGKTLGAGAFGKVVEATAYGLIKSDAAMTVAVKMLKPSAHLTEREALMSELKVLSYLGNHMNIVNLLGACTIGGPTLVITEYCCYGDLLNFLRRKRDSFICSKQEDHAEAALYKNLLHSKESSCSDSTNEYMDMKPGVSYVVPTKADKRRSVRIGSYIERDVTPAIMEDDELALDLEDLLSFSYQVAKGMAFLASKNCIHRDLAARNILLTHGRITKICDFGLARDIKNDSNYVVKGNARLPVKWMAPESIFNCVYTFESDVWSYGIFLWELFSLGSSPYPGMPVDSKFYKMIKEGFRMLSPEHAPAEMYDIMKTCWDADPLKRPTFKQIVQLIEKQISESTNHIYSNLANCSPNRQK

COc1ccc(NC(=O)Nc2cccc(C(=O)c3c[nH]c4ncccc34)c2)cc1 [Compound P-1705, 1-(4-Methoxy-phenyl)-3-[3-(1H-pyrrolo[2,3-b]pyridine-3-carbonyl)-phenyl]-urea]
not listed: FGFR1
≤ 10 µM: all other assays above

Cn1cc(-c2cnc3[nH]cc(C(=O)c4c(F)ccc(NS(=O)(=O)c5ccc(C(F)(F)F)cc5)c4F)c3c2)cn1 [Compound P-1996, N-{2,4-Difluoro-3-[5-(1-methyl-1H-pyrazol-4-yl)-1H-pyrrolo[2,3-b]pyridine-3-carbonyl]-phenyl}-4-trifluoromethyl-benzenesulfonamide]
not listed: FGFR1
≤ 10 µM: all other assays above

N#Cc1ccc(S(=O)(=O)Nc2ccc(F)c(C(=O)c3c[nH]c4ncc(Cl)cc34)c2F)cc1 [Compound P-1822, N-[3-(5-Chloro-1H-pyrrolo[2,3-b]pyridine-3-carbonyl)-2,4-difluoro-phenyl]-4-cyano-benzenesulfonamide]
not listed: FGFR1
≤ 10 µM: all other assays above

Cc1ccc(NC(=O)Nc2cccc(C(=O)c3c[nH]c4ncccc34)c2)cc1 [Compound P-1718, 1-[3-(1H-Pyrrolo[2,3-b]pyridine-3-carbonyl)-phenyl]-3-p-tolyl-urea]
not listed: FGFR1
≤ 10 µM: all other assays above

O=C(c1ccc(F)cc1F)c1c[nH]c2ncc(-c3cccnc3)cc12 [Compound P-1555]
≤ 10 µM: Fms | B-Raf | FGFR1

COCCOc1ccc(-c2cnc3[nH]cc(C(=O)c4c(F)ccc(NS(=O)(=O)c5ccc(C(F)(F)F)cc5)c4F)c3c2)cc1 [Compound P-2013, N-(2,4-Difluoro-3-{5-[4-(2-methoxy-ethoxy)-phenyl]-1H-pyrrolo[2,3-b]pyridine-3-carbonyl}-phenyl)-4-trifluoromethyl-benzenesulfonamide]
≤ 10 µM: Fms | B-Raf | B-Raf V600E

COc1cnc2[nH]cc(C(=O)c3cc(NS(=O)(=O)c4cccc(F)c4)ccc3Cl)c2c1 [Compound P-1664]
≤ 10 µM: Fms | B-Raf | B-Raf V600E

Cc1cccc(NC(=O)Nc2cccc(C(=O)c3c[nH]c4ncc(-c5ccc(F)cc5)cc34)c2)c1 [Compound P-1758, 1-{3-[5-(4-Fluoro-phenyl)-1H-pyrrolo[2,3-b]pyridine-3-carbonyl]-phenyl}-3-m-tolyl-urea]
≤ 10 µM: Fms | B-Raf | B-Raf V600E

COc1ccc(-c2cnc3[nH]cc(C(=O)c4c(F)ccc(NS(=O)(=O)c5cccc(F)c5)c4F)c3c2)cn1 [Compound P-2012, N-{2,4-Difluoro-3-[5-(6-methoxy-pyridin-3-yl)-1H-pyrrolo[2,3-b]pyridine-3-carbonyl]-phenyl}-3-fluoro-benzenesulfonamide]
≤ 10 µM: Fms | B-Raf | B-Raf V600E

O=C(c1c(F)ccc(NS(=O)(=O)c2ccc(C(F)(F)F)cc2)c1F)c1c[nH]c2ncc(-c3ccc(Cl)cc3)cc12 [Compound P-1670]
≤ 10 µM: Fms | B-Raf | B-Raf V600E

COc1ccc(NC(=O)Nc2cccc(C(=O)c3c[nH]c4ncc(Cl)cc34)c2)cc1 [Compound P-1734, 1-[3-(5-Chloro-1H-pyrrolo[2,3-b]pyridine-3-carbonyl)-phenyl]-3-(4-methoxy-phenyl)-urea]
≤ 10 µM: Fms | B-Raf | B-Raf V600E

COc1cc(NC(=O)Nc2cccc(C(=O)c3c[nH]c4ncccc34)c2)cc(C(F)(F)F)c1 [Compound P-1762, 1-(3-Methoxy-5-trifluoromethyl-phenyl)-3-[3-(1H-pyrrolo[2,3-b]pyridine-3-carbonyl)-phenyl]-urea]
≤ 10 µM: Fms | B-Raf | B-Raf V600E

O=C(Nc1cccc(Cl)c1)Nc1cccc(C(=O)c2c[nH]c3ncc(-c4cccnc4)cc23)c1 [Compound P-1726, 1-(3-Chloro-phenyl)-3-[3-(5-pyridin-3-yl-1H-pyrrolo[2,3-b]pyridine-3-carbonyl)-phenyl]-urea]
≤ 10 µM: Fms | B-Raf | B-Raf V600E

CN(C)c1ccc(NC(=O)Nc2cccc(C(=O)c3c[nH]c4ncccc34)c2)cc1 [Compound P-1780, 1-(4-Dimethylamino-phenyl)-3-[3-(1H-pyrrolo[2,3-b]pyridine-3-carbonyl)-phenyl]-urea]
≤ 10 µM: Fms | B-Raf | B-Raf V600E

CCCS(=O)(=O)Nc1ccc(F)c(C(=O)c2c[nH]c3ncc(-c4nc(C)c[nH]4)cc23)c1F [Compound P-2006, Propane-1-sulfonic acid {2,4-difluoro-3-[5-(4-methyl-1H-imidazol-2-yl)-1H-pyrrolo[2,3-b]pyridine-3-carbonyl]-phenyl}-amide]
≤ 10 µM: Fms | B-Raf | B-Raf V600E

O=C(Nc1cccc(C(=O)c2c[nH]c3ncccc23)c1)Nc1cccc(C(F)(F)F)c1 [Compound P-1746, 1-[3-(1H-Pyrrolo[2,3-b]pyridine-3-carbonyl)-phenyl]-3-(3-trifluoromethyl-phenyl)-urea]
≤ 10 µM: Fms | B-Raf | B-Raf V600E

O=C(Nc1ccc(F)cc1)Nc1cccc(C(=O)c2c[nH]c3ncc(-c4ccc(F)cc4)cc23)c1 [Compound P-1816, 1-(4-Fluoro-phenyl)-3-{3-[5-(4-fluoro-phenyl)-1H-pyrrolo[2,3-b]pyridine-3-carbonyl]-phenyl}-urea]
≤ 10 µM: Fms | B-Raf | B-Raf V600E

COc1ccc(NC(=O)Nc2cccc(C(=O)c3c[nH]c4ncc(Cl)cc34)c2)cn1 [Compound P-1774, 1-[3-(5-Chloro-1H-pyrrolo[2,3-b]pyridine-3-carbonyl)-phenyl]-3-(6-methoxy-pyridin-3-yl)-urea]
≤ 10 µM: Fms | B-Raf | B-Raf V600E

COc1cnc2[nH]cc(Cc3c(F)ccc(OCc4ccccc4)c3F)c2c1 [Compound P-1804, 3-(3-Benzyloxy-2,6-difluoro-benzyl)-5-methoxy-1H-pyrrolo[2,3-b]pyridine]
≤ 10 µM: Fms | B-Raf | B-Raf V600E

O=C(Nc1cccc(C(=O)c2c[nH]c3ncccc23)c1)Nc1ccc(C(F)(F)F)c(Cl)c1 [Compound P-1766, 1-(3-Chloro-4-trifluoromethyl-phenyl)-3-[3-(1H-pyrrolo[2,3-b]pyridine-3-carbonyl)-phenyl]-urea]
≤ 10 µM: Fms | B-Raf | B-Raf V600E

O=C(Nc1cccc(Cl)c1)Nc1cccc(C(=O)c2c[nH]c3ncccc23)c1 [Compound P-1710, 1-(3-Chloro-phenyl)-3-[3-(1H-pyrrolo[2,3-b]pyridine-3-carbonyl)-phenyl]-urea]
≤ 10 µM: Fms | B-Raf | B-Raf V600E

COc1ccc(NC(=O)Nc2cccc(C(=O)c3c[nH]c4ncc(-c5ccc(F)cc5)cc34)c2)cc1OC [Compound P-1818, 1-(3,4-Dimethoxy-phenyl)-3-{3-[5-(4-fluoro-phenyl)-1H-pyrrolo[2,3-b]pyridine-3-carbonyl]-phenyl}-urea]
≤ 10 µM: Fms | B-Raf | B-Raf V600E

O=C(Nc1cccnc1)Nc1cccc(C(=O)c2c[nH]c3ncc(Cl)cc23)c1 [Compound P-1771, 1-[3-(5-Chloro-1H-pyrrolo[2,3-b]pyridine-3-carbonyl)-phenyl]-3-pyridin-3-yl-urea]
≤ 10 µM: Fms | B-Raf | B-Raf V600E

O=C(c1c(F)ccc(NS(=O)(=O)c2ccccc2F)c1F)c1c[nH]c2ncc(Cl)cc12 [Compound P-1912, N-[3-(5-Chloro-1H-pyrrolo[2,3-b]pyridine-3-carbonyl)-2,4-difluoro-phenyl]-2-fluoro-benzenesulfonamide]
≤ 10 µM: Fms | B-Raf | B-Raf V600E

COc1ccc(NC(=O)Nc2cccc(C(=O)c3c[nH]c4ncccc34)c2)cn1 [Compound P-1763, 1-(6-Methoxy-pyridin-3-yl)-3-[3-(1H-pyrrolo[2,3-b]pyridine-3-carbonyl)-phenyl]-urea]
≤ 10 µM: Fms | B-Raf | B-Raf V600E

CCCCOc1ccc(NC(=O)Nc2cccc(C(=O)c3c[nH]c4ncc(Cl)cc34)c2)cc1 [Compound P-1741, 1-(4-Butoxy-phenyl)-3-[3-(5-chloro-1H-pyrrolo[2,3-b]pyridine-3-carbonyl)-phenyl]-urea]
≤ 10 µM: Fms | B-Raf | B-Raf V600E

O=C(c1cccc(NS(=O)(=O)c2ccc(C(F)(F)F)cc2)c1)c1c[nH]c2ncccc12 [Compound P-1784]
≤ 10 µM: Fms | B-Raf | B-Raf V600E

O=C(c1c(F)ccc(NS(=O)(=O)c2ccc(-c3ccccn3)s2)c1F)c1c[nH]c2ncc(Cl)cc12 [Compound P-1800, 5-Pyridin-2-yl-thiophene-2-sulfonic acid [3-(5-chloro-1H-pyrrolo[2,3-b]pyridine-3-carbonyl)-2,4-difluoro-phenyl]-amide]
≤ 10 µM: Fms | B-Raf | B-Raf V600E

O=C(Nc1cccnc1)Nc1cccc(C(=O)c2c[nH]c3ncccc23)c1 [Compound P-1781, 1-Pyridin-3-yl-3-[3-(1H-pyrrolo[2,3-b]pyridine-3-carbonyl)-phenyl]-urea]
≤ 10 µM: Fms | B-Raf | B-Raf V600E
